Test results: ChEMBL document CHEMBL1201862, “PubChem BioAssay data set” (2004)
The source made the active and inactive calls.

How the values were obtained:
[1] = HIV-1 AD8 envelope cell-cell fusion blockers – cherry-pick, dose response (AID 652062); format: functional, cell-based;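 further: luciferase signal from cell-cell fusion driven by HIV-1 clade B AD8 Env; potency is for inhibitors of fusion seen as a drop in luminescence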
[2] = DRD fibroblast viability loss – cell-based, non-viral oncogenic, luminescence, dose response (AID 1934); format: functional; settings: Homo sapiens
[3] = Luminescence Cell-Based Dose Response HTS to Identify Inhibitors of 5'UTR Stem-Loop Driven Prion Protein mRNA Translation in H4 Neuroglioblastoma Cells. [Related pubchem assays: 1827 (Project Summary), 1813 (Primary HTS)]; format: functional
[4] = luciferase reporter signal suppression in cells – H4 neuroglioma cells, luminescence, dose response (AID 1990); format: functional, cell-based
[5] = alpha-synuclein stem-loop luciferase translation blockers – H4 neuroglioma cells, luminescence, confirmation (AID 1988); format: functional, cell-based
BJ [6] = assay: BJ-TERT-LT-ST fibroblast viability loss – cell-based, RAS-independent, luminescence, dose response (AID 1935); format: functional; settings: Homo sapiens;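 further: BJ fibroblasts immortalized with TERT plus LT and ST oncogenes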
BJ [7] = assay: cells; format: functional, cell-based; settings: Homo sapiens
BJ [8] = assay: BJ-TERT fibroblast viability loss – cell-based, RAS-independent, luminescence, dose response (AID 1933); format: functional; settings: Homo sapiens
[9] = molecular target: T1, Ubiquitin-conjugating enzyme E2 N (Homo sapiens, UniProt P61088); format: functional;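 further: Dose-response confirmation in a TR-FRET assay detecting UBC13-driven polyubiquitin chain formation, inhibition measured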
T1 sequence (P61088 whole entry): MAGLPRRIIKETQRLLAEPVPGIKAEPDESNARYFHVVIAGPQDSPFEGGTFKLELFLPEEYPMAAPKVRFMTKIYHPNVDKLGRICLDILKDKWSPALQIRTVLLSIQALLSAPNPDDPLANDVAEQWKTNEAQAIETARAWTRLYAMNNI

[10] = microbe, parasite or virus in culture; format: functional; settings: Mycobacterium tuberculosis
[11] = molecular target: T2, DNA repair and recombination protein RAD54-like (Homo sapiens, UniProt Q92698); assay: RAD54 Holliday junction migration blockers – biochemical, fluorescence, cherry-picked samples, dose series, confirmation (AID 651657); format: functional
T2 sequence (Q92698 whole entry): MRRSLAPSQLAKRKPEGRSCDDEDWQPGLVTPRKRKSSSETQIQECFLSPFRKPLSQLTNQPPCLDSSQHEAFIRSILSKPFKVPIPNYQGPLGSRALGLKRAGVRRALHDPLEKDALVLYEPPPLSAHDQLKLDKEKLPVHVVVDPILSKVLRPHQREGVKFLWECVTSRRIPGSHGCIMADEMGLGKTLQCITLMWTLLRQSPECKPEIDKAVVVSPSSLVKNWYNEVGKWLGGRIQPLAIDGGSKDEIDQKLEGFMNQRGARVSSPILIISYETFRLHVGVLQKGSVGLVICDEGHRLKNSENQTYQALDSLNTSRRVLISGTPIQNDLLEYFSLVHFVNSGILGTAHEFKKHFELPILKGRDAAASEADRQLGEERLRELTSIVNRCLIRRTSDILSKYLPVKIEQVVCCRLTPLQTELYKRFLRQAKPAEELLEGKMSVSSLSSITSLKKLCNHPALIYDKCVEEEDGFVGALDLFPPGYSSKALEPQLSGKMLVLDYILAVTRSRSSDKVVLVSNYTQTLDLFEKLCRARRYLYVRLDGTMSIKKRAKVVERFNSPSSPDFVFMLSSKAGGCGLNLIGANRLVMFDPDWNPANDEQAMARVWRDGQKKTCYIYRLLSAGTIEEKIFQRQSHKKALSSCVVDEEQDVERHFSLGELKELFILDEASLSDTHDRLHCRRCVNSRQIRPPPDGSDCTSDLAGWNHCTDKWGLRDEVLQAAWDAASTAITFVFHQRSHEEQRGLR

[12] = blockers of HIV-1 envelope-mediated cell-cell fusion – cherry-pick, dose response (AID 652057); format: functional, cell-based
[13] = Luminescence Cell-Based Dose Retest to Confirm Inhibitors of Cancer Stem Cells. [Related pubchem assays (depositor defined):AID2717, AID2721]; format: functional; settings: Homo sapiens
H4 = assay: Luminescence Cell-Based Dose Response HTS to Identify Activators of 5'UTR Stem-Loop Driven Prion Protein mRNA Translation in H4 Neuroglioblastoma Cells. [Related pubchem assays: 1829 (Project Summary), 1814 (Primary HTS)]; format: functional; settings: Homo sapiens
[14] = Luminescence Cell-Based Dose Confirmation HTS to Identify Activators of 5'UTR Stem-Loop Driven Alpha-Synuclein mRNA Translation in H4 Neuroglioblastoma Cells. [Related pubchem assays: 1829 (Project Summary), 1814 (Primary HTS)]; format: functional
[15] = Luminescence Cell-Based Dose Response HTS to Identify Activators of Luciferase Translation or Activity in H4 […] Cells. [Related pubchem assays: 1829 (Project Summary), 1814 (Primary HTS)]; format: functional
[16] = Luminescence Cell-Based Dose Confirmation HTS to Identify Inhibitors of Platelet Dense Granule Release. [Related pubchem assays: 1663 (Primary HTS), 1678 (Summary of Project)]; format: functional
[17] = molecular target: Luciferin 4-monooxygenase (Photinus pyralis, UniProt P08659); assay: inhibition of purified Photinus pyralis luciferase – biochemical, luminescence, dose response (AID 1891)
Cytochrome P450 2D6 = Cytochrome P450 2D6 (Homo sapiens, UniProt P10635);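 further: CYP2D6 member of a cytochrome P450 panel assay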
Cytochrome P450 1A2 = molecular target: T3, Cytochrome P450 1A2 (Homo sapiens, UniProt P05177);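 further: PubChem cytochrome P450 panel assay, CYP1A2 panel member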
T3 sequence (P05177 whole entry): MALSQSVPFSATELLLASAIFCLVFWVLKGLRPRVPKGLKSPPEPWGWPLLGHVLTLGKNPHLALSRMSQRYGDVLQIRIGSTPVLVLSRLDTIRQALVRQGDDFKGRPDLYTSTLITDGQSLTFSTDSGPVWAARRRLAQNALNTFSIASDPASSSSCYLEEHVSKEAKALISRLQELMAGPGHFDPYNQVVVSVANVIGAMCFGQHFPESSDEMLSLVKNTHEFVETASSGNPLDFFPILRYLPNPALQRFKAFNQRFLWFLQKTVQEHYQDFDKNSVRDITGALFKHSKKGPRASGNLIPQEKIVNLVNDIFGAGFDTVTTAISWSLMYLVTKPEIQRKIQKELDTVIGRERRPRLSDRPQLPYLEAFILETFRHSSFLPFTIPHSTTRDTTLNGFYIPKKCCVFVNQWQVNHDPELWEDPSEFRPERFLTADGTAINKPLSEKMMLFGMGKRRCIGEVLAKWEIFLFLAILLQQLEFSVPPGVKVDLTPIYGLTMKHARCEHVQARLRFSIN

[18] = molecular target: T4, Polyadenylate-binding protein 1 (Homo sapiens, UniProt P11940); assay: MLLE domain peptide-binding blockers, IC50 – biochemical, fluorescence polarization, FITC-PAM2 peptide, dose response (AID 602259); format: functional; settings: read-out: IC50_Mean
[19] = molecular target: T4, Polyadenylate-binding protein 1; assay: MLLE binding blockers, Cy5 peptide tracer – biochemical, fluorescence polarization, Cy5-PAM2 peptide, secondary, miRNA deadenylation inhibitor project, dose response (AID 602260); format: functional; settings: read-out: IC50_Mean
[20] = non-specific 3'UTR reporter inhibition in Clone20-Shn3RL – cell-based, Renilla luciferase, cherry-picked, counter-screen for Shn3 inhibitor project, dose response (AID 624133); format: functional
[21] = reduction of Shn3 3'UTR-driven luciferase in osteoblasts – cell-based, Clone20 osteoblasts, firefly luciferase, cherry-picked, dose response (AID 624132); format: functional;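 further: firefly luciferase luminescence from reporter carrying the Shn3 3'UTR in osteoblasts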
INS1 = assay: INS-1E survival protection against cytokine death – cell-based, luminescence, retest, dose response (AID 449756); format: functional; settings: Rattus norvegicus;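 further: cell death triggered by IL-1 beta plus TNF-alpha plus IFN-gamma mixture; protective hits raise ATP signal compared with cytokine alone wells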
[22] = P. falciparum Dd2 growth inhibitors, dose response, SYBR Green, cherry-picked samples (AID 1159567); format: functional, cell-based

Chain of Luciferin 4-monooxygenase (P08659 whole entry): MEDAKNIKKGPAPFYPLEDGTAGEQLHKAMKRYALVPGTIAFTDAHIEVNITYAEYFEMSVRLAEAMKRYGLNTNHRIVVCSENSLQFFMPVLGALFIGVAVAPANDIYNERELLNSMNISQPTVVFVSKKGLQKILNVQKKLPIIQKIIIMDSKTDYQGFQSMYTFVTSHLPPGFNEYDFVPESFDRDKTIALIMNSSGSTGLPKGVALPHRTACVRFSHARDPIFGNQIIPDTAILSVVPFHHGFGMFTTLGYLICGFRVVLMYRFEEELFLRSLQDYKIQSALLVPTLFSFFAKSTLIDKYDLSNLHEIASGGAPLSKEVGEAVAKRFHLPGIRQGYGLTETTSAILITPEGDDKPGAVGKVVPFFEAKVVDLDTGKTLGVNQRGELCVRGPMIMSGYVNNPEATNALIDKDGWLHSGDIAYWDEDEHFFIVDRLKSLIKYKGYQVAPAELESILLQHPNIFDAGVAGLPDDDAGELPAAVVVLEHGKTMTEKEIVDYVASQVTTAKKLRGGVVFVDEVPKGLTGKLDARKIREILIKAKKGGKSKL
T4 sequence (P11940 whole entry, the tested form may be a part): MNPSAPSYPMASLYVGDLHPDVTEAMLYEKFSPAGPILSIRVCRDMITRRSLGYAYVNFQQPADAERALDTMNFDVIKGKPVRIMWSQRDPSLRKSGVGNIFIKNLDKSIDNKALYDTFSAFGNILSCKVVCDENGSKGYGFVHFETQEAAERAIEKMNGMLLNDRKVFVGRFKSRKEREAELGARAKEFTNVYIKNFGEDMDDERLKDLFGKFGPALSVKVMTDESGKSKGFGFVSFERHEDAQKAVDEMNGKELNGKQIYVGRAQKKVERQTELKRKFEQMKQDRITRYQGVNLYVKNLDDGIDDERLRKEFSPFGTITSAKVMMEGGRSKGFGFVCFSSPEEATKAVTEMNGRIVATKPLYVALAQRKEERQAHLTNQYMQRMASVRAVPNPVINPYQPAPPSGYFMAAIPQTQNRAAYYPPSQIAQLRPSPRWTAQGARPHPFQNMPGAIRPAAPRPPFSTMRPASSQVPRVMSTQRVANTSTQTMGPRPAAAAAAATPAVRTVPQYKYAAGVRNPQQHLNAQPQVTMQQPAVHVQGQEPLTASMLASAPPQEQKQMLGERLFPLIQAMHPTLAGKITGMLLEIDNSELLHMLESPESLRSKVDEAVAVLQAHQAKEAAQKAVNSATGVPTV
Chain of Cytochrome P450 2D6 (P10635 whole entry): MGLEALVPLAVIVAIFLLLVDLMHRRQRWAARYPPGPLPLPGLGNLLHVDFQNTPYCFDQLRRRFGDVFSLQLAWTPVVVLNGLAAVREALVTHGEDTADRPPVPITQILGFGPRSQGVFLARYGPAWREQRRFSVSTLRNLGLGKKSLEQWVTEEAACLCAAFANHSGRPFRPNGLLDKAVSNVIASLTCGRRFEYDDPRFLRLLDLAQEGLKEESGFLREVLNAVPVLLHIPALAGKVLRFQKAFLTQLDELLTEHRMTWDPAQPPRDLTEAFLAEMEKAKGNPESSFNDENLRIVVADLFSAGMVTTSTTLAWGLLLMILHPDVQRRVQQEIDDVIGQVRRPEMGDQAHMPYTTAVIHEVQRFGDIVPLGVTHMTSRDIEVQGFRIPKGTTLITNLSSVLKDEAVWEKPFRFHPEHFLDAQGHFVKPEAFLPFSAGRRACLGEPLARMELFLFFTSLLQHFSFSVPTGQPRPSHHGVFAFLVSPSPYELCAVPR

COCCCn1c(-c2ccc(S(=O)(=O)N3CCOCC3)cc2)cs/c1=N/c1ccccc1
AC50 [1]: 15.3 µM (active)

CC(=O)Nc1ccc(Nc2nc(-c3c(C)nc4ccccn34)cs2)cc1
EC50 [2]: 2.86 µM (inconclusive)
EC50 [3]: 0.227 µM (active)
EC50 [4]: > 120 µM (not active)
EC50 [5]: 0.13 µM (active)
EC50 (BJ [6]): 0.654 µM (inconclusive)
EC50 (BJ [7]): 70.7 µM (inconclusive)
EC50 (BJ [8]): 2.15 µM (active)

CCCCN1C(=N)N([C@@H](CCC)CN2CCC[C@H]2CN2C(N)=NC[C@H]2CC(C)C)C[C@H]1Cc1ccccc1
IC50 [9]: > 20 µM (inactive)

COc1ccc(Cl)cc1C(=O)O/N=C(\N)c1ccccn1
CC50 [10]: > 40 µM (active)

Oc1ccccc1-c1nc(NCCN2CCOCC2)c2ccccc2n1
AC50 [11]: 29.5 µM (active)

CN1CCN(c2ccc([N+](=O)[O-])cc2C(=O)c2ccc(Cl)cc2)CC1
EC50 [2]: 4.22 µM (active)
EC50 (BJ [6]): 11 µM (inconclusive)
EC50 (BJ [7]): 33.7 µM (inconclusive)
EC50 (BJ [8]): 5.02 µM (active)

C[C@H]1CN([C@@H](C)CO)C(=O)c2cc(NS(C)(=O)=O)ccc2O[C@@H]1CN(C)Cc1ccc(Cl)c(Cl)c1
AC50 [12]: 48.9 µM (active)

CC(=O)c1cn(S(=O)(=O)c2ccccc2)c2ccccc12
IC50 [9]: > 20 µM (inactive)

C[C@H]1CN([C@@H](C)CO)C(=O)c2c(c3ccccc3n2C)-c2ccccc2CO[C@H]1CN(C)C(=O)CCC(F)(F)F
AC50 [12]: < 0.26 µM (active)
AC50 [1]: 0.411 µM (active)

Cc1ccn2c(NC3CCCCC3)c(-c3cccc(-c4cccc(Cl)c4)c3)nc2c1
CC50 [10]: > 40 µM (active)
AC50 [13]: 2.85 µM (active)

CC1(C)SC(=S)N(NC(=O)Nc2cccc3ccccc23)C1N(O)C(=O)Nc1ccccc1 (stereo unspecified)
EC50 (H4): > 120 µM (not active)
EC50 [14]: > 120 µM (not active)
CC50 [10]: 36.3 µM (active)
EC50 [15]: > 60 µM (not active)

CCOC(=O)C1C(c2ccc(OC)c(OC)c2)c2c(n[nH]c2O)CC1(C)O (stereo unspecified)
EC50 [16]: > 112 µM (not active)
EC50 [17]: > 112 µM (not active)

O[C@@H](c1cc(C(F)(F)F)nc2c(C(F)(F)F)cccc12)[C@H]1CCCCN1
CC50 [10]: 13.5 µM (active)
IC50 [9]: > 20 µM (inactive)

CCOC(=O)CSc1nc2ccc(N)cc2s1
EC50 [16]: > 112 µM (not active)
EC50 [17]: > 112 µM (not active)

CCN(CC)CC(C)OC(=O)c1ccccc1Cl (stereo unspecified)
EC50 [16]: > 112 µM (not active)
EC50 [17]: > 112 µM (not active)

C[C@@H]1CN([C@H](C)CO)S(=O)(=O)c2ccc(-c3ccccc3)cc2O[C@@H]1CN(C)Cc1ccccc1
AC50 [12]: 31.8 µM (active)

CCN1CCCC1CNC(=O)c1cc2c(-c3cccc(OC)c3)nn(C)c2s1 (stereo unspecified)
AC50 [11]: 56.9 µM (active)

Cc1ccc(NC(S)=Nc2ccc3c[nH]nc3c2)cc1
EC50 [16]: > 112 µM (not active)
EC50 [17]: > 112 µM (not active)

C=CCn1cc(/C=N/Nc2nc3ccccc3[nH]2)c2ccccc21
EC50 [16]: > 112 µM (not active)
EC50 [17]: 45.1 µM (active)

CCCCOc1ccc(CNn2c(C)nc3ccccc3c2=O)cc1
AC50 (Cytochrome P450 2D6): 7.94 µM (inconclusive)
IC50 [9]: > 20 µM (inactive)

CCOC(=O)c1c(NC(=O)c2c(C)noc2C)sc2c1CCCCC2
EC50 [16]: > 112 µM (not active)
EC50 [17]: > 112 µM (not active)
AC50 (Cytochrome P450 1A2): 5.01 µM (inconclusive)

CCC(=O)N1CCN(c2ccc(NC(=S)NC(=O)c3cccc([N+](=O)[O-])c3)cc2)CC1
IC50 [18]: > 66 µM (inactive)
IC50 [19]: > 66 µM (inactive)

COc1ccc2c3n(nc2c1)CCN=C3c1cc(Cl)c(N)c(Cl)c1
CC50 [10]: 35.5 µM (active)

COc1cc(/C=C2/SC(Nc3ccc(O)cc3)=NC2=O)cc(OC)c1O
IC50 [9]: > 20 µM (inactive)

Cc1c(C(=O)N(Cc2cccc(Br)c2)C2CCS(=O)(=O)C2)oc2ccccc12 (stereo unspecified)
AC50 [20]: > 70 µM (inactive)
AC50 [21]: 35.9 µM (active)

c1csc(-c2csc3ncnc(NCCCN4CCOCC4)c23)c1
AC50 (INS1): 9.18 µM (active)
AC50 [1]: 4.73 µM (active)

CN(C)CC#Cc1ccc([C@H]2[C@H](CO)N3CCCCN(C(=O)CN(C)C)C[C@@H]23)cc1
AC50 [22]: 9.36 µM (active)

O=C(O)c1ccccc1SC1CC(=O)N(c2cccc3ccccc23)C1=O (stereo unspecified)
IC50 [18]: > 66 µM (inactive)
IC50 [19]: > 66 µM (inactive)

CC(C)NS(=O)(=O)c1ccc(NC(=S)NC(=O)c2cccc([N+](=O)[O-])c2)cc1
IC50 [18]: > 66 µM (inactive)
IC50 [19]: > 66 µM (inactive)

O=C(CSc1nccn(-c2ccc(Br)cc2)c1=O)NC1CCCC1
IC50 [18]: > 66 µM (inactive)
IC50 [19]: > 66 µM (inactive)

Cc1cccc2cc(CN(CC(C)C)S(=O)(=O)c3ccccc3)c(O)nc12
EC50 [16]: > 112 µM (not active)
EC50 [17]: > 112 µM (not active)
